Measurements: US12435083B2, “Cyclopropyl-(hetero)aryl-substituted ethylsulphonyl-pyridine derivatives” (BOEHRINGER INGELHEIM VETMEDICA GMBH, priority 2021, dated 2025)
Where two headings read alike, the source gives them in different places.

Assays:
Plutella xylostella = experiment: Insecticidal test on Plutella xylostella (Chinese cabbage seedling dip); settings: 144 h, read-out: activity level (corrected mortality rate), Plutella xylostella
Experimental: Example 12: Insecticidal Test on Plutella xylostella
(§1) The compounds of formula (I) of the present invention or salts thereof were separately dispersed in water and diluted to 500 ppm. Ten adults of Plutella xylostella were released onto Chinese cabbage seedlings and allowed to lay eggs thereon. 2 days after the release of the adults, the seedling was dipped in the dispersion for about 30 seconds. After air dried, the seedling was kept in a room at 25° C. 6 days after the dip treatment, the numbers of the dead and alive insects were counted. The corrected mortality rate was calculated according to the following formula and the insecticidal activity was evaluated according to the following criteria. Corrected mortality rate (%)=100×(Survival rate in an untreated plot−Survival rate in a treated plot)/Survival rate in an untreated plot • A: the corrected mortality rate is 100% • B: the corrected mortality rate is 90 to 99% • C: the corrected mortality rate is 80 to 89% • D: the corrected mortality rate is 50 to 79%

[1] = test system: adult Ctenocephalides felis fleas; experiment: Contact activity against adult Ctenocephalides felis (treated surface, motility by machine vision, 24 h); settings: read-out: EC80 (% motility reduction, adult C. felis, contact)
Excerpt: Example 7: Screening Method to Test Contact Activity of Compounds of Formula (I) Against Adult Ctenocephalides felis

Aedes aegypti L1 larvae = experiment: Activity against larvae of Aedes aegypti (L1 larvae, 384-well, image-based mortality); settings: 48 h at 27° C., 384-well, read-out: EC50 (percentage of mortality, A. aegypti L1 larvae)
Experimental: Example 3: Screening Method to Test Activity of Compounds of Formula (I) Against Larvae of Aedes aegypti
Eight A. aegypti L1 larvae in a total volume of 64 μL water were added to 384-well microplates containing compounds formulated in 100% DMSO. The plates were incubated for 48 h at 27° C. Individual well images were acquired and analyzed using a pipeline to quantitatively assess the amount of larvae biomass accumulating at the bottom of the well. The efficacy of a compound at a given dose is expressed as “percentage of mortality” and determined by comparison to average biomass descriptors of positive and negative control wells containing 1.0 μM Fipronil or DMSO only, respectively. Dose response assay were conducted to determine an EC50 value.

[2] = test system: Laodelphax striatellus 3rd-instar nymphs; experiment: Insecticidal test on Laodelphax striatellus (rice seedling dip); settings: 192 h, read-out: activity level (corrected mortality rate), Laodelphax striatellus
Experimental: Example 13: Insecticidal Test on Laodelphax striatellus
as §1, with “Rice plant seedlings” for “Ten adults of Plutella xylostella”, “were” for “were released onto Chinese cabbage seedlings and allowed to lay eggs thereon. 2 days after the release of the adults, the seedling was”, “seedlings were put into a separate glass test tube and inoculated with ten 3rd-instar nymphs of Laodelphax striatellus and then the glass test tube” for “seedling”, “8” for “6”, “inoculation,” for “dip treatment,”

Myzus persicae = experiment: Insecticidal test on Myzus persicae (foliar application on potted Chinese cabbage); settings: 144 h, 500 ppm, foliar application, 6 days after application, read-out: control efficacy level (control rate), Myzus persicae
Excerpt: Example 14: Insecticidal Test on Myzus persicae
The compounds of formula (I) of the present invention or salts thereof were separately dispersed in water and diluted to 500 ppm. Chinese cabbage plants were planted in plastic pots (diameter: 8 cm, height: 8 cm). Aphids (Myzus persicae) were propagated on the plants and then the number of surviving aphids was counted. The dispersion was applied to the foliage of the potted plants. After the plants were air dried, these were kept in a greenhouse. 6 days after the application, the number of the alive insects was counted on the plants. The control rate was calculated according to the following formula and the control efficacy was evaluated according to the following criteria. Control rate (%)=100−{(T×Ca)/(Ta×C)}×100 • Ta: the number of alive insects before the foliar application in a treated plot • T: the number of alive insects after the foliar application in a treated plot • Ca: the number of alive insects before the foliar application in an untreated plot • C: the number of alive insects after the foliar application in an untreated plot • A: the control rate is 100% • B: the control rate is 90 to 99% • C: the control rate is 80 to 89% • D: the control rate is 50 to 79%

[3] = test system: adult Rhipicephalus sanguineus ticks; experiment: Contact activity against adult Rhipicephalus sanguineus (coated vial, mortality at 48 h); settings: Rhipicephalus sanguineus
Experimental: Example 5: Screening Method to Test Contact Activity of Compounds of Formula (I) Against Adult Rhipicephalus sanguineus
Compounds of formula (I) formulated in 100% DMSO were diluted in a solution containing acetone and Triton X-100 (0.02%). The resulting formulation was used to coat the inner walls of glass scintillation vials and the filter paper covering the cap of the vial. Once dried, ten adult R. sanguineus ticks were added to the vials. The vials were incubated at 24° C., 95% relative humidity, and 12 hours of light/12 hours of dark until evaluation. Ticks were visually evaluated for mortality at 48 hours post-treatment. Compound efficacy at a given dose is expressed as percentage mortality. A dose response series was implemented to determine EC50 values.
(§2) The four structurally closest prior art compounds (A), (B), (C) and (D) specifically excluded from the scope of formula (I) were characterized vis-a-vis selected compounds of formula (I) with regard to their potency in in vitro screening assays against fleas (Ctenocehalides felis) and ticks (Rhipicephalus sanguineus).
(§3) However, as explained above, spectrum of action against this range of species (i.e. fleas and ticks) is a desirable property of ectoparasiticides for veterinary use. In the following table 1 comparative experimental data of the in vitro assays are shown regarding flea membrane feeding (ingestion, blood feeding) activity against Ctenocephalides felis and contact activity against Rhipicephalus sanguineus.

[4] = test system: adult Ctenocephalides felis fleas; experiment: Ingestion activity (flea membrane feeding, blood feeding) against adult Ctenocephalides felis; settings: Ctenocephalides felis
Excerpt: Example 6: Screening Method to Test Ingestion Activity of Compounds of Formula (I) Against Adult Ctenocephalides felis
as §2
It is important to note that compounds that show better activity versus ticks are more desirable in the animal health field, as ticks are more difficult to control than fleas. Noteworthy, in particular with regard to fleas the illustrated comparative data are based on a flea membrane feeding (ingestion, blood feeding) assay. Data from this assay are more relevant for compounds intended to be delivered systemically to an animal via oral or injectable routes. Membrane feeding assays differ to primary screening laboratory contact assays in that the latter only measure the effect of the direct contact of selected compounds on the parasite, such as the flea or the tick. The information derived from laboratory contact assays is strictly limited to the ability of the compound to be absorbed through the parasite surface and to reach its molecular target, and no information can be gleaned from these contact assays as to whether the compound would also be active when presented orally to the ectoparasite itself in a blood meal, such as with the membrane feeding assay, and certainly not when administered orally to an animal host (e.g. “in vivo”) with subsequent exposure to the ectoparasite.
as §3

[5] = 500 ppm, seedling dip, 6 days after dip treatment
[6] = 500 ppm, seedling dip, 8 days after inoculation
[7] = 48 hours post-treatment, coated vial, read-out: EC50 (percentage mortality, adult R. sanguineus, contact)
[8] = bovine blood, 24h post treatment, read-out: EC80 (% motility reduction, adult C. felis, ingestion via membrane feeding)

Compound	mortality at 500 ppm (Plutella xylostella; [5])	EC80 ([1]; treated surface, 24h)	mortality at 500 ppm [2, 6]	pest or weed control at 500 ppm (Myzus persicae)	further results
CCn1cc(C(F)(F)F)cc2nc(-c3ncc(-c4ccc(C5CC5)cc4)cc3S(=O)(=O)CC)cc1-2 [Compound 6, 5-(4-cyclopropylphenyl)-3-(ethanesulfonyl)-2-[4-ethyl-6-(trifluoromethyl)pyrrolo[3,2-b]pyridine-2-yl]pyridine]	100%	1 to 10 µM			
CCS(=O)(=O)c1cc(-c2ccc(C3CC3)cc2)cnc1-n1cc2cnc([S+]([O-])C(F)(F)F)cc2n1 (centres unmarked) [Compound 29, 5-(4-cyclopropylphenyl)-3-(ethanesulfonyl)-2-[6-trifluoromethanesulfinylpyrazolo[4,3-c]pyridin-2-yl]pyridine]		1 to 10 µM			EC50 (Aedes aegypti L1 larvae): < 0.04 µM
CCS(=O)(=O)c1cc(-c2ccc(C3CC3)cc2)cnc1-c1nc2cc(C(F)(F)F)cnc2o1 [Compound 40, 5-(4-cyclopropylphenyl)-3-(ethanesulfonyl)-2-[6-(trifluoromethyl)-[1,3]oxazolo[5,4-b]pyridin-2-yl]pyridine]	100%	1 to 10 µM			
CCS(=O)(=O)c1cc(-c2ccc(C3CC3)cc2)cnc1-c1nc(-c2cc(C(F)(F)F)ccn2)cn1C [Compound 55, 5-(4-cyclopropylphenyl)-3-(ethanesulfonyl)-2-[1-methyl-4-[4-(trifluoromethyl)pyridin-2-yl]imidazol-2-yl]pyridine]	100%		100%	100%	
CCS(=O)(=O)c1cc(-c2cncc(C3CC3)c2)cnc1-c1nc2cc(C(F)(F)C(F)(F)F)nnc2n1C [Compound 61, 5′-cyclopropyl-5-(ethanesulfonyl)-6-[7-methyl-3-(1,1,2,2,2-pentafluoroethyl)imidazo[4,5-c]pyridazin-6-yl]-3,3′-bipyridine]					EC50 [3, 7]: 10 to 100 µM; EC50 (Aedes aegypti L1 larvae): 0.04 to 0.05 µM
CCn1cc(C(F)(F)F)cc2nc(-c3ncc(-c4ncc(C5CC5)cn4)cc3S(=O)(=O)CC)cc1-2 [Compound 92, 5-cyclopropyl-2-[5-(ethanesulfonyl)-6-[4-ethyl-6-(trifluoromethyl)pyrrolo[3,2-b]pyridin-2-yl]pyridin-3-yl]pyrimidine]	100%	1 to 10 µM		100%	
CCS(=O)(=O)c1cc(-c2cnc(C3CC3)nc2)cnc1-c1nc2cc(C(F)(F)C(F)(F)F)nnc2n1C [Compound 93, 2-cyclopropyl-5-[5-(ethanesulfonyl)-6-[7-methyl-3-(1,1,2,2,2-pentafluoroethyl)imidazo[4,5-c]pyridazin-6-yl]pyridin-3-yl]pyrimidine]		< 1 µM			EC80 [4, 8]: 1 to 10 µM
CCS(=O)(=O)c1cc(-c2ccc(C3CC3)cc2)cnc1-c1cc2n(C(C)C)cc(C(F)(F)F)cc-2n1 [Compound 100, 5-(4-cyclopropylphenyl)-3-(ethanesulfonyl)-2-[4-isopropyl-6-(trifluoromethyl)pyrrolo[3,2-b]pyridin-2yl]pyridine]					mortality at 500 ppm [2]: 100%; mortality at 500 ppm (Plutella xylostella): 100%; EC50 ([3]; 48 h, read-out: EC50 (percentage mortality, adult R. sanguineus, contact)): < 10 µM; EC80 ([1]; 24 h): 1 to 10 µM
CCS(=O)(=O)c1cc(-c2ccc(C3CC3)cc2)cnc1-c1ccc(OCC(F)(F)C(F)(F)F)nn1 [Compound 126, 3-[5-(4-cyclopropylphenyl)-3-(ethanesulfonyl)pyridin-2-yl]-6-(2,2,3,3,3-pentafluoropropoxy)pyridazine]	100%		100%	100%	EC50 [3, 7]: < 10 µM
CCS(=O)(=O)c1cc(-c2cnnc(C3CC3)c2)cnc1-c1nc2cc(C(F)(F)C(F)(F)F)cnc2n1C [Compound 195, 3-cyclopropyl-5-[5-(ethanesulfonyl)-6-[3-methyl-6-(1,1,2,2,2-pentafluoroethyl)imidazo[4,5-b]pyridin-2-yl]pyridin-3-yl]pyridazine]	100%		100%		EC80 [4, 8]: < 1 µM
CCS(=O)(=O)c1cc(-c2ccc(C3(C(F)(F)F)CC3)cc2)cnc1-c1nc2cc(C(F)(F)C(F)(F)F)ncc2n1C [compound 116]					EC50 (Aedes aegypti L1 larvae): < 0.04 µM
CCn1c(=O)c(C(F)(F)F)cc2nc(-c3ncc(-c4ccc(C5CC5)cc4)cc3S(=O)(=O)CC)n(C)c21 [compound 125]		1 to 10 µM		100%	
CCS(=O)(=O)c1cc(-c2ccc(C3CC3(F)F)cc2)cnc1-c1nc2cc(C(F)(F)C(F)(F)F)cnc2n1C (centres unmarked) [compound 134]	100%	1 to 10 µM	100%	100%	EC50 [3, 7]: 10 to 100 µM; EC50 ([3]; contact assay, >100 μM = not active at the top concentration, read-out: R. sanguineus contact activity EC50): 10 to 100 µM; EC80 ([4]; 24 h, flea membrane feeding (ingestion, blood feeding) assay, EC80, read-out: C. felis membrane feeding (ingestion/blood feeding) activity EC80): 1 to 10 µM; EC80 [4, 8]: 1 to 10 µM
CCS(=O)(=O)c1cc(-c2cccnc2C2CC2)cnc1-c1nc2cc(C(F)(F)C(F)(F)F)nnc2n1C [compound 138]	100%	< 1 µM	100%	100%	EC80 [4, 8]: < 1 µM
CCS(=O)(=O)c1cc(-c2ccc(C3(C)CC3)cc2)cnc1-c1nc2cc(C(F)(F)C(F)(F)F)nnc2n1C [compound 154]	100%	1 to 10 µM		100%	EC50 [3, 7]: 10 to 100 µM
